Assay results as given in US20120039808A1, “Brain Tumor Stem Cell Differentiation Promoter, and Therapeutic Agent for Brain Tumor” (The University of Tokyo, priority 2009, published 2012).
“Also recorded” adds a separate entry of the source.

Tests used:
[1] = system: Nestin, Musashi, GFAP, Tuj1 positive glioma-initiating cells; test: Immunostaining of neural precursor and differentiation markers; format: cell-based, human
Method: Glioma-initiating cells (GICs) were seeded on glass slides that had been coded using poly-L-ornithine (Sigma) and fibronectin (Sigma), and were then cultured for seven days together with various ligands or inhibitors in serum-free culture. The cells were fixed using 3.7% paraformaldehyde, and then the cell membrane was made permeable using 0.3% Triton […] including PBS, and incubated together with various antibodies.
(§1) Next, the effects of TGF-β (100 μM) or SB431542 (1 μM) were examined using flow cytometry. In the presence of TGF-β inhibitors, the percentage of CD133-positive cells in the glioma spheres was reduced. (See FIG. 3A.) Further, to examine the expression of neural precursor cell markers or neural cell differentiation markers in the glioma spheres, the spheres (TGS-01) were separated into single serum-free culture, and seeded on glass slides that had been coded using poly-L-ornithine (Sigma) and fibronectin (Sigma), and were then cultured for seven days together with TGF-β (100 μM) or the inhibitor SB431542 (1 μM). The cells were fixed using 3.7% paraformaldehyde, and the cell membrane was made permeable using 0.3% Triton […] including PBS, and incubated together with antibodies before immunostaining was implemented.

[2] = system: Sox2 mRNA; test: Sox2 mRNA expression by quantitative real-time PCR; format: cell-based, human
Method: (§2) Quantitative real-time PCR was implemented according to the method by Ikushima et al. (EMBO J. 2008, 27: 2955-2965). All samples were implemented in triplicate. The data was normalized using glyceraldehyde 3-phosphate dehydrogenase (GAPDH).
In addition, siRNA (siSMAD2 and siSMAD3) were transfected to SMAD2 and SMAD3 in TGS-01 cells, and incubated for 24 hours, and then processed for TGF-β (100 μM), and the expression levels measured. […] (See FIG. 4B).
The induction of Sox2 expression by TGF-β was observed 24 hours after stimulation, but not observed after three hours. (See FIG. 4A.) Further, the effects of TGF-β on Sox2 expression in the presence of cycloheximide, which is a protein synthesis inhibitor, were examined. TGF-β (100 μM) processing was implemented for 24 hours, and after processing the TGF-β for 30 minutes, the cycloheximide processing was started, and the Sox2 expression levels were measured. In the presence of cycloheximide, which is a protein synthesis inhibitor, the induction of Sox2 expression was reduced. From these facts, it is thought that Sox2 expression is not induced directly by TGF-β, but rather, that it is controlled by other factors that are induced by TGF-β.

[3] = system: TGS-01 cells transplanted intracranially; test: Intracranial proliferation assay; format: in vivo, BALB/c nu/nu mice
Method: Glioma-initiating cells (living cells […] in 5 μL of DMEM/F12 culture) were injected stereotaxically at a depth of 3 mm into the right cerebral hemisphere of five-week-old female BALB/c nu/nu mice. All animal testing was implemented according to the policies of the University of Tokyo animal testing committee.
Specifically, adenovirus-Sox4 or adenovirus-LacZ staining was implemented, and 5×10^4 TGS-01 cells either unprocessed or after 24 hours processing using a TGF-β inhibitor were transplanted intracranially. TGF-β is well-known to promote glioma cell proliferation, so to classify the results into effects on growth and effects in differentiation, SB431542 processing was implemented as pre-processing and not implemented continuously. Six mice were used for each condition, and evaluated using Kaplan-Meier analysis. The p values were determined using the long-rank test. […] Further, the results of histological analysis of the samples dissected 30 days after intracranial transplant are shown in FIG. 11 (Right). Tissue sections were stained using hematoxylin and eosin (HE).

[4] = system: Sox4 recruitment to the Sox2 enhancer region; test: Chromatin immunoprecipitation with Sox4 antibodies; format: cell-based, human; details: TGS-01; 24 hours; TGF-β 100 μM or SB431542 1 μM
Method: (§3) Chromatin immunoprecipitation was implemented using the method described by Koinuma et al. (Molecular and Cellular Biology, 2009, 29:172-186, 10.1128/MCB, 01038-08). After reverse cross-linking, the DNA was processed using proteinase K, and refined using a PCR purification kit (Qiagen). The DNA was eluted into 30 μL of TE, and used in either PCR or quantitative real-time PCR. The primers used in the PCR are as described below.
To verify that this control is direct, chromatin immunoprecipitation assay was implemented using Sox4 antibodies. It has previously been reported that the enhancer region located in the Sox2 gen 3′ flanking region is important for controlling Sox2 expression. (Chew et al., Molecular and Cellular Biology, 2005, 25:6031-6046; Tomioka et al., Nucleic Acids Research, 2002, 30: 3202-3213.) This region includes the consensus binding motif CATTGTA to Sox4. […]
Here, TGS-01 cells were processed for 24 hours using either TGF-β (100 μM), or SB431542 (1 μM), and the eluted DNA analyzed using quantitative real-time PCR. The measured values were normalized using HPRT first intron quantities. […] Further, to examine the effects of Sox4 knockdown on sox2 expression induction by TGF-β, siRNA was stained, and after for 24 hours, was processed for a further 24 hours using TGF-β (100 μM), and the Sox2 mRNA expression levels measured using real-time PCR. […]

[5] = system: Sox4 mRNA; test: Sox4 mRNA expression by quantitative real-time PCR; format: cell-based, human; details: for Sox4 mRNA expression: TGS-01 and TGS-04, three hours and 24 hours, TGF-β 100 μM or SB431542 1 μM
From the text: as §2

[6] = system: SMAD complexes binding to Sox4 promoters; test: Chromatin immunoprecipitation with SMAD2 and SMAD3 antibodies; format: cell-based, human; details: TGS-01; 1.5 hours; TGF-β 100 μM or SB431542 1 μM
Method: as §3
To verify that Sox4 is a direct TGF-β marker, chromatin immunoprecipitation assay was implemented using antibodies to SMAD2 and SMAD3, which are DNA binding signal mediators for the TGF-β signals. Specifically, TGS-01 cells were processed for 1.5 hours using either TGF-β (100 μM), or SB431542 (1 μM), and the eluted DNA was supplied for either real-time PCR or RT-PCR. In real-time PCR, the measured values were normalized using the first introns of hypoxanthine phosphoribosyltransferase (HPRT). […] (See FIG. 6F.)

[7] = system: CD133-positive cells in glioma spheres; test: Flow cytometry of CD133-positive cells; format: cell-based, human
Method: The cells were separated into single cells, and marked using phycoerythrin marker CD133 antibodies. The expression levels were measured using EXPO32 ADC software through a Beckman C EPICS XL flow cytometer.
as §1

[8] = system: glioma-initiating cells (TGS-01, TGS-04); test: Sphere formation assay; format: cell-based, human
Method: GICs were cultivated for seven days using a non-tissue-culture-treated-flask with vent cap (BD Bioscience). The floating spheres were counted for each sample within five fields of vision under a microscope.
To clarify the role of TGF-β signals in glioma-initiating cells, first the effects due to TGF-β signal inhibition were examined. A sphere formation ability assay was implemented in the presence of either TGF-β or a TGF-β inhibitor (SB431542, 1 μM).
SB431542 can inhibit not only the TGF-β type I receptor (ALK5), but also activin/nodal type I receptor signals, so to identify the role of TGF-β signals, the effects of a TGF-β receptor II/Fc chimera on glioma-initiating cells were examined. The glioma-initiating cells were separated into single cells, and a sphere assay implemented in the presence of either human TGF-βRII/Fc chimera (1 μg/mL), or IgG1Fc (1 μg/mL) as a control.

[9] = system: Sox2 protein; test: Sox2 protein level by immunoblotting; format: cell-based, human; details: 24-hour processing; TGF-β 100 μM or SB431542 1 μM
Method: The cells were dissolved in a buffer including 1% Nonidet P-40, 20 mM Tris-hydrochloride (pH7.4), 150 mM sodium chloride, 1 mM PMSF, 1% aprotinin, and 5 mM EDTA. The proteins refined from the cytolized product was supplied to SDS-PAGE, and transferred to a Fluoro Trans W Membrane (Pall). Immunoblotting was implemented using various types of antibodies.
Moreover, it was also verified that the 24-hour processing using TGF-β (100 μM) or SB431542 (1 μM) suppressed the expression of Sox2 protein levels. (See FIG. 4C.) In the diagram, α-tubulin is the loading control.

[10] = system: Oct-4, NANOG, and LIF expression; test: Expression of stem cell markers Oct-4, NANOG, LIF; format: cell-based, human
From the text: as §2
(See FIG. 14.) Further, it has been reported that NANOG and LIF are induced in many cells by stimulating TGF-β. (Xu et al., Cell Stem Cell, 2008, 3: 206; Bruna et al., Cancer Cell, 2007, 11: 147-160.)

[11] = 24 hours after processing, TGF-β 100 μM or SB431542 1 μg (so in the source)
[12] = cells pre-processed with SB431542, 30 days after intracranial transplant

## NC(=O)c1ccc(-c2nc(-c3ccc4c(c3)OCO4)c(-c3ccccn3)[nH]2)cc1 [SB431542]
[1]; TGS-01 over-expressing Sox4, SB431542, seven days
  percentages of Nestin-positive cells and GFAP-positive cells: no major changes
[1]; cells over-expressing Sox2
  percentage of GFAP-positive cells: did not increase
  percentage of Nestin-positive cells: did not fall
[2]; [11]
  expression of Sox2 mRNA: suppressed
[2]; subsequently for seven days, SB431542 1 μg (so in the source)
  expression of Sox2 mRNA: low expression level continued
[3]; TGS-01 (adenovirus-LacZ) pre-processed 24 hours with SB431542 vs unprocessed control, Kaplan-Meier
  survival period of the mice: significantly longer
[3]; [12]
  neurological symptoms: did not show any neurological symptoms
  tumors on pathological examination using HE staining: did not reveal any tumors
[3]; glioma-initiating cells over-expressing Sox4, pre-processed with SB431542
  extension of survival periods: did not shown any effects
[4]
  Sox4 recruitment to the Sox2 enhancer region: clearly reduced
[5]
  Sox4 mRNA expression: down-regulated
[6]
  binding of SMAD complexes to Sox4 promoters: clearly controlled
[7]; SB431542 1 μM
  percentage of CD133-positive cells in the glioma spheres: reduced
[8]; SB431542 1 μM, seven days culture
  sphere formation ability of glioma-initiating cells: conspicuously reduced
[8]; SB431542 added to formed spheres
  spherical growth pattern of spheres that had once formed: became adhesion cells
[8]; TGS-01 over-expressing Sox4 (adenovirus-Sox4 vs adenovirus-LacZ), SB431542 1 μM, seven days
  sphere formation ability: fall in sphere formation ability was alleviated
[8]; glioma-initiating cells over-expressing Sox2, compared to LacZ over-expressing cells
  sphere formation abilities: reduced only slightly
[9]
  expression of Sox2 protein levels: suppressed

## C[C@@H]1C[C@@H]([C@H](O)CC2CC(=O)NC(=O)C2)C(=O)[C@@H](C)C1 [cycloheximide]
[2]; TGF-β 100 μM (so in the source) 24 hours, cycloheximide started after 30 minutes
  induction of Sox2 expression by TGF-β in the presence of cycloheximide: reduced
[5]
  Sox4 induction by TGF-β in the presence of cycloheximide: not influenced

## TGF-β
[1]; adding TGF-β (100 μM [sic]), seven days
  marker expression: did not greatly influence
[2]; [11]
  expression of Sox2 mRNA: induced; also recorded: observed
[2]; three hours after TGF-β stimulation
  induction of Sox2 expression: not observed
[4]
  Sox4 recruitment to the Sox2 enhancer region: increased
[5]
  Sox4 mRNA expression: induced
[6]
  binding of SMAD complexes to Sox4 promoters: bound directly
[7]; adding TGF-β (100 μM [sic])
  CD133-positive ratio: did not greatly influence
[8]; adding TGF-β
  sphere formation ability: did not greatly influence
[9]
  expression of Sox2 protein levels: suppressed
[10]; TGS-01 or TGS-04 cells, TGF-β signals
  LIF expression: did not induce
[10]; processing using TGF-β or an inhibitor
  expression of Oct-4, NANOG, and LIF: not greatly affected

## CC1=C2C[C@H]3[C@@H](CC=C4C[C@@H](O)CC[C@@]43C)[C@@H]2CC[C@]12O[C@@H]1C[C@H](C)CN[C@H]1[C@H]2C [cyclopamine]
[8]; TGS-01, cyclopamine 2.5, 5, 10 μM vs SB431542 1 μM
  effects on sphere formation compared with SB431542: smaller than those of SB431542
[8]; TGS-01, cyclopamine combined with SB431542 1 μM
  effect on sphere formation of the two drugs combined: no additional or synergistic effect
[8]; cyclopamine 2.5, 5, and 10 μM, seven days
  sphere formation ability of TGS-01 cells: reduced

B1: TGF-βRII/Fc: human TGF-β receptor II/Fc chimera (protein)
chain: TIPPHVQKSVNNDMIVTDNNGAVKFPQLCKFCDVRFSTCDNQKSCMSNCSITSICEKPQEVCVAVWRKNDENITLETVCHDPKLPYHDFILEDAASPKCIMKEKKKPGETFFMCSCSSDECNDNIIFSEEYNTSNPD
modifications: left off: a dimerising Fc or GST
notes: human TGF-β receptor II/Fc chimera
[8]; human TGF-βRII/Fc chimera 1 μg/mL, IgG1Fc 1 μg/mL as control
  efficiency in forming spheres: low
